The values that follow come from patent US20240180900A1, “COMPOUNDS AND METHODS FOR THE TARGETED DEGRADATION OF ANDROGEN RECEPTOR” (Arvinas Operations, Inc., priority 2022, published 2024).

Molecules are shown by their SMILES. Some results are limits rather than exact numbers.

Series [1] concerns the target T1, AR (Homo sapiens, UniProt P10275).
T1 sequence (P10275 1-920): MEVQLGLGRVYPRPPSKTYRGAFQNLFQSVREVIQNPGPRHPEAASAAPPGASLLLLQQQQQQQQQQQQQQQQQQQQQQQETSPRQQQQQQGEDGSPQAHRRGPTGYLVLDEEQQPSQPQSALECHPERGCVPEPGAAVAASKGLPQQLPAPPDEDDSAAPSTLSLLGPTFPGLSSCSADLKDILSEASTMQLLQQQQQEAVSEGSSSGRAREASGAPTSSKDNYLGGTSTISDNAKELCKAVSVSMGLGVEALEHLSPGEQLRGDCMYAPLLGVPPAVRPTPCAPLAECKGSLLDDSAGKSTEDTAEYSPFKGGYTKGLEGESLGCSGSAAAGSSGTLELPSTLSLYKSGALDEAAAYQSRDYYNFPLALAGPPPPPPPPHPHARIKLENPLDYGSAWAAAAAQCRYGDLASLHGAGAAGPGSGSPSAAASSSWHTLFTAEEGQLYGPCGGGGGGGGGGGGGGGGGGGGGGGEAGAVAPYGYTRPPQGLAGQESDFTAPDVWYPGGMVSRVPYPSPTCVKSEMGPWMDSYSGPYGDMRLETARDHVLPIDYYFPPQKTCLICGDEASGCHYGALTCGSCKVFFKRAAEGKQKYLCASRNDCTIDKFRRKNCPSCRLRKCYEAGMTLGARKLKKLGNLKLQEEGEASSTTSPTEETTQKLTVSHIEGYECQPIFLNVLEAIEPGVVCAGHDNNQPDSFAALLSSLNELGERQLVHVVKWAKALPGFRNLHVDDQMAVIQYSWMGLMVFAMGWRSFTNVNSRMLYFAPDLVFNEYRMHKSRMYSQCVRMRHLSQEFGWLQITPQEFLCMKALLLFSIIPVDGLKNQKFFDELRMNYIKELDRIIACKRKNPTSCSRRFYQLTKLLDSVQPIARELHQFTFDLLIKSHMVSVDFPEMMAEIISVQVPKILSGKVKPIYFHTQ
Briefly: AR degradation in castrated mice bearing VCaP xenografts (western blotting). Set-up: from tissue; host or cells: VCaP xenograft tumour tissue from castrated CB17/SCID mice. The series is classed as in vivo, mouse. On the procedure: Tumors were harvested 16 hours post-dose and tumor AR level was established by western blotting. Antibody recognizing human mitochondria specific antibody (Mito.C) was employed as a loading control. The quantitation of AR levels from the western blot is shown (lower panel).
Castration eliminates testosterone produced by the testes. Upon castration, prostate tumor cells implanted in the mouse start to produce testosterone on their own, enabling their growth. The effect of Compound A on AR degradation in vivo was evaluated in castrated mice bearing VCaP xenografts. To recapitulate human CRPC, when the implanted tumors reached a volume of approximately 100 mm^3, the mice were surgically castrated. Three weeks after castration, mice were administered a single PO dose of Compound A at 10, 3, 1, 0.3, 0.1, 0.03, or 0 (vehicle) mg/kg via gavage. Sixteen hours after treatment, the tumor tissues were collected, and lysates were prepared to assess AR expression by western blotting. At Compound A doses of 10, 3, 1, 0.3, 0.1, and 0.03 mg/kg, AR was reduced on average by 96%, 91%, 81%, 73%, -5%, and 14%, respectively (FIG. 11), compared to vehicle control.
On the technique in general: A western blot detects proteins with antibodies after separation by electrophoresis.

Series [2] has as its target T2, AR (LNCaP cells, AR mutation T878A) (Homo sapiens, UniProt P10275, T878A).
T2 construct: endogenous in cells; host or cells: LNCaP
In words: AR degradation assay in LNCaP cells. Format: cell-based. As to conditions: 24 hours of treatment. As to the method:
FIG. 2 is an analysis of Compound A in in vitro AR degradation assays conducted in VCaP cells and LNCaP cancer cells that harbor AR amplification and the AR mutation (T878A) mutation, respectively.
To determine the pharmacological effect of Compound A in vitro, AR degradation assays were conducted in VCaP (vertebral-cancer of the prostate) cancer cells and LNCaP (lymph node carcinoma of the prostate) cancer cells that harbor AR amplification and the AR mutation (T878A) mutation, respectively.
To determine the pharmacological effect of Compound A in vitro, AR degradation assays were conducted in VCaP cells and LNCaP prostate cancer cells that harbor AR amplification and the AR mutation (T878A) mutation, respectively.

In series [3] the target is T3, AR S889G (Homo sapiens, UniProt P10275, S889G).
T3 construct: expressed in transfected cells; host or cells: T-REx-293
In words: AR degradation in T-Rex-293 cell line, S889G. The series is classed as cell-based. As to conditions: T-Rex-293, ELISA. The source says:
(§1) FIG. 3 is a graph showing Compound A's ability to degrade clinically relevant mutated forms AR.
(§2) To assess the ability of Compound A to degrade variants of the AR, vectors expressing wild-type AR or mutant AR proteins harboring clinically observed mutations in the ligand binding domain (13 with single amino acid changes or 4 with 2 amino acid changes) (Azad A. A., Volik S. V., Wyatt A. W., et al. Androgen receptor gene aberrations in circulating cell-free DNA: biomarkers of therapeutic resistance in castration-resistant prostate cancer. Clin Cancer Res. 2015; 21:2315-2324; Robinson D., Van Allen E. M., Wu Y. M., et al. Integrative clinical genomics of advanced prostate cancer. Cell. 2015; 161:1215-1228; Ledet E. M., Lilly M. B., Sonpavde G., et al. Comprehensive analysis of AR alterations in circulating tumor DNA from patients with advanced prostate cancer. Oncologist.
For orientation: An ELISA detects its analyte on a solid surface through an enzyme-linked reagent.

For series [4], the system named is receptors, ion channels, transporters, and enzymes. Briefly: selectivity screening panel of 44 targets: other targets. As to conditions: 1 μM; interaction = effect greater than 50% of positive control. The series is classed as binding. As to the method:
Compound A was tested at 1 μM in a screening study to assess the interaction of Compound A with a panel of 44 targets, including receptors, ion channels, transporters, and enzymes. Any effect greater than 50% of the positive control for a target was considered to represent an interaction of the test compound with the target.

Series [5] concerns the target T4, AR M750T (Homo sapiens, UniProt P10275, M750T).
T4 construct: expressed in transfected cells; host or cells: T-REx-293
In words: AR degradation in T-Rex-293 cell line, M750T. The series is classed as cell-based. As to conditions: T-Rex-293, ELISA.
Description: as §1, §2

A short description of series [6]: preclinical exposure in the VCaP tumor xenograft mouse model. The following applies: CB17/scid, in vivo, oral, 1 mg/kg/day, read-out: AUCinf, minimally efficacious preclinical exposure. On the procedure: Exposure at the 100 mg QD dose (N=6) with mean steady-state Compound A AUC0-24=4,610 ng*hr/mL on Cycle 1 Day 21 achieved the minimally efficacious preclinical exposure associated with tumor growth inhibition in the VCaP tumor xenograft mouse model (AUCinf=3,930 ng*hr/mL at 1 mg/kg/day dose; data not included).

In general, DC50 refers to the concentration giving 50% degradation. For orientation: Dmax means the greatest extent of degradation seen. A low value points to a partial loss of target.

T2 sequence (P10275 whole entry T878A): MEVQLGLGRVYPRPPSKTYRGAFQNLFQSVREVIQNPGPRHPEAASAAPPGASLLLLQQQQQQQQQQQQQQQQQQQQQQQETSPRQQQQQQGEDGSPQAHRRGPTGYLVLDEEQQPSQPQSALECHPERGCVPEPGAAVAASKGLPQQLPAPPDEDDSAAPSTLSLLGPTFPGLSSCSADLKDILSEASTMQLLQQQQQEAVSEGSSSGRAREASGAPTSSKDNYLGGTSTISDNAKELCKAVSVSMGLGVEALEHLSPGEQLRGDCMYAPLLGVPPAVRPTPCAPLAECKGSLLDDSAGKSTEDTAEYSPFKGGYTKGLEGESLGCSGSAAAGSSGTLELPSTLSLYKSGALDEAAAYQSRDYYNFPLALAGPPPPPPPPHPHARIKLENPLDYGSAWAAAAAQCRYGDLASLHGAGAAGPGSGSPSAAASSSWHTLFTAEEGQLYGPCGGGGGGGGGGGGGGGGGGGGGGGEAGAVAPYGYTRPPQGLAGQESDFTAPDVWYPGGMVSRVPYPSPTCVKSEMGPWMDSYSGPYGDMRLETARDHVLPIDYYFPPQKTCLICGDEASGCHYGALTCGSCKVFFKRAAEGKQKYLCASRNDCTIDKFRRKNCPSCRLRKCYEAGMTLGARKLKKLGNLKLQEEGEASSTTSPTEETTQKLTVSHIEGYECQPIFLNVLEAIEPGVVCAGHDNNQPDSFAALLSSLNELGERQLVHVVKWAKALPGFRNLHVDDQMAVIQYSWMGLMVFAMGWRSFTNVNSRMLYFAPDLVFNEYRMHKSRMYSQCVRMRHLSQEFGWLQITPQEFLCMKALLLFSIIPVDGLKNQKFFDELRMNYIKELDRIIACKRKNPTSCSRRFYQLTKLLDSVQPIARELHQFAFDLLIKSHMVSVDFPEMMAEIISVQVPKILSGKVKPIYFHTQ
T3 sequence (P10275 whole entry S889G): as the sequence (P10275 whole entry T878A) above, with A878T, S889G counted along it
T4 sequence (P10275 whole entry M750T): as the sequence (P10275 whole entry T878A) above, with M750T, A878T counted along it

In the case of `COc1cc(O[C@H]2C(C)(C)[C@H](NC(=O)c3ccc(N4CCC(CN5CCN(c6ccc(C(=O)N[C@H]7CCC(=O)NC7=O)c(F)c6)CC5)CC4)cc3)C2(C)C)ccc1C#N` [Compound A, 4-(4-((1-(4-(((1R,3R)-3-(4-cyano-3-methoxyphenoxy)-2,2,4,4-tetramethylcyclobutyl)carbamoyl)phenyl)piperidin-4-yl)methyl)piperazin-1-yl)-N—((S)-2,6-dioxopiperidin-3-yl)-2-fluorobenzamide], the “AR reduced on average vs vehicle control” value in series [1] (single PO dose 0.03 mg/kg, 16 hours) was 14%; in series [1] (single PO dose 0.1 mg/kg, 16 hours), -5%; in series [1] (single PO dose 0.3 mg/kg, 16 hours), 73%; in series [1] (single PO dose 1 mg/kg, 16 hours), 81%; in series [1] (single PO dose 3 mg/kg, 16 hours) it was 91%; in series [1] (single PO dose 10 mg/kg, tumors 16 hours post-dose), 96%. Further, the half-maximal degradation concentration (DC50) is at most 1.3 nM in series [2], 3.1 nM in series [3] and 0.6 nM in series [5]. In series [2], the Dmax is at least 91%. Further, the “interaction with any other target of the panel of 44 targets” value in series [4] is given as “No interaction with any other target was identified”. Further, the AUC(0-inf) in series [6] worked out at 3930 ng·h/mL.
